Experimental data as given in publication PMC4749225, “Azidobupramine, an Antidepressant-Derived Bifunctional Neurotransmitter Transporter Ligand Allowing Covalent Labeling and Attachment of Fluorophores” (PLoS ONE, 2016).
Where two headings read alike, the source gives them in different places.

Assays:
rSERT [1] = biological target: T1, rSERT (Rattus norvegicus, UniProt P31652); assay: Radioligand binding assay (RBA), competition with [3H]-citalopram, membranes of T-REx-SERT cells; conditions: for IC50: 0.5 nM [3H]-citalopram, 34°C, 60 min; for Ki: IC50 converted to Ki according to Cheng-Prusoff
T1 construct: expressed in transfected cells; host or cells: T-REx-SERT cells (T-REx 293 based, tetracycline-inducible), gift of C.G. Tate
T1 sequence (P31652 whole entry): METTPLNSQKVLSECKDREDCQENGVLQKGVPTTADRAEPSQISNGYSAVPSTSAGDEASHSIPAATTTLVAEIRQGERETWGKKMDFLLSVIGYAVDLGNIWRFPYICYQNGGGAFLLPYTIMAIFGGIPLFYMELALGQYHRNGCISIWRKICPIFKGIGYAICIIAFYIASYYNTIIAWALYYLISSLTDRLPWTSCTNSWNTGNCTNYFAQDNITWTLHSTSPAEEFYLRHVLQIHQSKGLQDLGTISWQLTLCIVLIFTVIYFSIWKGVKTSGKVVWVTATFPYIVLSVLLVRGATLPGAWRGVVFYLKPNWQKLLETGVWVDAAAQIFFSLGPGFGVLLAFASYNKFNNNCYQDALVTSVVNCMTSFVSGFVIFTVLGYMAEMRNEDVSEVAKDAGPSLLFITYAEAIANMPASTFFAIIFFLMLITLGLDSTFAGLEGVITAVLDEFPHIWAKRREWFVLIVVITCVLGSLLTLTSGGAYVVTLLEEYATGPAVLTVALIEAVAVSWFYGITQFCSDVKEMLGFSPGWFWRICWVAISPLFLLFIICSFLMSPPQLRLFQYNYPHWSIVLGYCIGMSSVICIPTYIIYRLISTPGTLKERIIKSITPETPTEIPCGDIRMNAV
Description: Tetracycline induced T-REx-SERT cells were mechanically disrupted with a hypotonic Tris-buffer (50 mM Tris, pH 7.9, proteinase inhibitor) in a two step procedure: dounce-homogenisation (Potter S, B.Braun, Melsungen, Germany) followed by an ultrasound treatment (sonifier W-250, Branson, CT, USA). Homogenates were centrifuged first at 800 rcf (10’, 4°C), followed by a second centrifugation step at 100,000 rcf (60’, 4°C). The resulting pellet was re-suspended in reaction-buffer RB1 (50 mM Tris-HCl, 150 mM NaCl, 5 mM KCl, proteinase inhibitor, pH 7.9), and stored at -80°C after protein determination (Pierce® BCA Protein Assay, Thermo Scientific, IL, USA).
Drugs were diluted in DMSO as solvent. Incubation was carried out at 34°C for 60’, and terminated by rapid filtration over polyethyleneimine preincubated GF/C filters using a Brandell MWXR-97TI cell harvester (Gaithersburg, MD, USA). Filters were washed three times with 2 ml of ice cold reaction-buffer RB1 and then incubated with scintillation liquid; radioactivity was measured by beta counting (MicroBeta, PerkinElmer LAS, Boston, MA, USA).

hDAT = biological target: T2, hDAT (Homo sapiens, UniProt Q01959); assay: Competitive MS Binding Assay (MSBA), (1R,3S)-indatraline as marker, HEK293 membrane fractions
T2 construct: expressed in transfected cells
T2 sequence (Q01959 whole entry): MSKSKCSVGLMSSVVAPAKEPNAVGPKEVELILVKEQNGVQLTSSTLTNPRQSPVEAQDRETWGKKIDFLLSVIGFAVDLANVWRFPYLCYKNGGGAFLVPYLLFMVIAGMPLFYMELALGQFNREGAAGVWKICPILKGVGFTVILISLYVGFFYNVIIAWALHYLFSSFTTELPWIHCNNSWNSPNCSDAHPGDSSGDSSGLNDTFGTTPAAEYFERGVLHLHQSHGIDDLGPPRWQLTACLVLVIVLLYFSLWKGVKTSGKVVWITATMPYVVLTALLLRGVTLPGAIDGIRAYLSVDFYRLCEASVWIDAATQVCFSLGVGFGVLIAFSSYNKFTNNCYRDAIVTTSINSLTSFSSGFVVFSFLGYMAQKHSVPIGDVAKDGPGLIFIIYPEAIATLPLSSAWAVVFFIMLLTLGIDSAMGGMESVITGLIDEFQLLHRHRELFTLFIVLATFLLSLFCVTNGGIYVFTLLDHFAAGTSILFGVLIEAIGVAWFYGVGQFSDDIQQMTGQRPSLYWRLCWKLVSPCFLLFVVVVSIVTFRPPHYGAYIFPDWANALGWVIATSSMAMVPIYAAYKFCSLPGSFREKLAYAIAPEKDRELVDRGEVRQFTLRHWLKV
Description: (§1) Competitive MSBAs to characterize the affinity of test compounds employing (1R,3S)-indatraline as a marker for hDAT, hNET and hSERT, respectively, were performed exactly as described by Grimm et al.. For this purpose, membrane fractions obtained from HEK293 cell lines stably expressing the corresponding target protein were incubated in presence of a fixed concentration of (1R,3S)-indatraline together with varying concentrations of test compounds in 96 well plates. After separation of the non-bound marker by vacuum filtration from the binding samples, bound (1R,3S)-indatraline remaining on the filter was eluted with acetonitrile (containing internal standard) and quantified by LC-ESI-MS/MS. Subsequently, inhibition of (1R,3S)-indatraline binding caused by test compounds could be analyzed essentially in the same way as described for radioligand binding assays.

hSERT = biological target: T3, hSERT (Homo sapiens, UniProt P31645); assay: as above
T3 construct: expressed in transfected cells
T3 sequence (P31645 whole entry): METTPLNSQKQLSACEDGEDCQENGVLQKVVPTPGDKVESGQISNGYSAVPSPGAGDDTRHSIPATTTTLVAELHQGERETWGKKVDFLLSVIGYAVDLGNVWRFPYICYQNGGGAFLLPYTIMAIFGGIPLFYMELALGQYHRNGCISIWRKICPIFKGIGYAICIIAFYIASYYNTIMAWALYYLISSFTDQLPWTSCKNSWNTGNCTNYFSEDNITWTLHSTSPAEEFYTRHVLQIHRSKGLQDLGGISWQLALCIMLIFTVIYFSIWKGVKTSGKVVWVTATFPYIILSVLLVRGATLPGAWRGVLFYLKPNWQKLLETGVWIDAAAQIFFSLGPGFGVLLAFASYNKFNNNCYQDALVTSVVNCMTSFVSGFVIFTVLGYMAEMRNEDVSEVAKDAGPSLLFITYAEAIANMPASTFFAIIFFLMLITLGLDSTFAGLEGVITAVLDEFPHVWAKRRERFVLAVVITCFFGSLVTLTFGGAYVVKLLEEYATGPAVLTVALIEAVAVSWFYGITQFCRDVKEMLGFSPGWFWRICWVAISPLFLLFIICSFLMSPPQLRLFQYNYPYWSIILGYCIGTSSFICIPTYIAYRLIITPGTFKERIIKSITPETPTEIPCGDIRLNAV
Description: as §1

hNET = biological target: T4, hNET (Homo sapiens, UniProt P23975); assay: as above; conditions: read-out: Ki, NET
T4 construct: expressed in transfected cells
T4 sequence (P23975 whole entry): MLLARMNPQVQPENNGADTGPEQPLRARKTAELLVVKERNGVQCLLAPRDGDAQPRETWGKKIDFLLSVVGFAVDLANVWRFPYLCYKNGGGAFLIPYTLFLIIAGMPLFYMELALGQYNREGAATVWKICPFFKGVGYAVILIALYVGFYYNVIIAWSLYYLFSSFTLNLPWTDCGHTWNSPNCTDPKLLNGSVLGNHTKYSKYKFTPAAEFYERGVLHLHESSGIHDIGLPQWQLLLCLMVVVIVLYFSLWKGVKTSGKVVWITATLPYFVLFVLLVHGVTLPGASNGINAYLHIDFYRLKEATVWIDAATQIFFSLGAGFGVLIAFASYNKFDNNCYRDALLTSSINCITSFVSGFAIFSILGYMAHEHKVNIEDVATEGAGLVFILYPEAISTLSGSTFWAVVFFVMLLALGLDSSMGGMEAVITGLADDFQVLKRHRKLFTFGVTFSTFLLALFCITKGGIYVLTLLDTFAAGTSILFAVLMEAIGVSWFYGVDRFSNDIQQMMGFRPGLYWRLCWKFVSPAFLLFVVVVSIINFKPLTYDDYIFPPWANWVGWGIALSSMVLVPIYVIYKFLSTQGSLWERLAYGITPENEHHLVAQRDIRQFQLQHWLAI
Description: as §1

rSERT [2] = biological target: T1, rSERT; assay: PAL of 17 in living T-REx-SERT cells followed by CuAAC rhodamine labelling, with competitor; format: cell-based; conditions: 17 10 μM; UV-light 312 nm
Description: T-REx-SERT cells expressing rSERT-His10-FLAG were kindly provided by C.G. Tate (MRC Laboratory of Molecular Biology, Cambridge, UK) [27]; cells were cultivated in suspension (FreeStyle™ 293 Expression medium, 10% FBS, antibiotic-antimycotic, and pyruvate); for selection purpose, 5 μg/ml blasticidin and 200 μg/ml zeocin were used; expression was induced by adding 1 μg/ml tetracycline for 5 days.
(§2) For all these experiments, rSERT was chosen as model target. The PAL-reaction was conducted either using rSERT-enriched protein material or living cells. In both cases, the subsequent CuAAC-reaction took place after the double-tagged rSERT-His10-FLAG was immobilized on ANTI-FLAG® M2 Affinity-gel (SigmaAldrich, MO, USA).
This was followed by UV-light induced covalent linkage (312 nm, 2x 60”, RT). The further processing was as described above, i.e. membrane preparation, solubilization and immobilization of rSERT to ANTI-FLAG® M2 Affinity-gel, CuAAC-reaction followed by protein elution, and SDS-PAGE.
Within the fluorescence based interaction studies of 17 with rSERT, the fluorescence signal was recorded with the ChemiDoc MP detection-system and analyzed using ImageLab (BioRad, CA, USA); for quantification, only those fluorescent signals were taken that correspond to Western blot verified rSERT (between 70-100 kDa). Recorded fluorescent signals were normalized to the Western-blot signal of rSERT. […]

rSERT [3] = biological target: T1, rSERT; assay: PAL and CuAAC fluorescence assay of 17 on rSERT-enriched material immobilized on ANTI-FLAG M2 affinity gel, with competitors; format: binding; conditions: for decrease in binding signal of 17 at enriched rSERT by competitor: 17 1 μM, competitor 1 mM (1000 fold molar excess), PAL then CuAAC rhodamine fluorescence
Description: as §2
For the interaction analysis of azidobupramine (17) with rSERT-enriched material, 1 mg of membrane preparation was solubilized in reaction-buffer RB3 (52.6 mM Tris/HCl, 126.4 mM NaCl, 5.26 mM KCl, 1% Triton X-100, proteinase inhibitor, pH 7.9). Then rSERT was immobilized on ANTI-FLAG® M2 Affinity-gel (over night, 4°C, constant agitation), and unbound protein was removed by three washing steps with reaction-buffer RB4 (25 mM HEPES/NaOH, 126.4 mM NaCl, 5.26 mM KCl, proteinase inhibitor, pH 7.9). […] This was followed by UV-light exposure (312 nm, 2x 45”, RT) using the Dual Transilluminator from Stratagene (5x8 Watt, La Jolla, CA, USA), and copper mediated click reaction (60 μM Rhodamine-azide, 2.5 mM ascorbic acid, 250 μM CuSO4, and 500 μM bis[(tertbutyltriazoyl)methyl]-[(2-carboxymethyltriazoyl)methyl]amine (BTTAA), 60’, RT, constant agitation) [31].
Within the fluorescence based interaction studies of 17 with rSERT, the fluorescence signal was recorded with the ChemiDoc MP detection-system and analyzed using ImageLab (BioRad, CA, USA); for quantification, only those fluorescent signals were taken that correspond to Western blot verified rSERT (between 70-100 kDa). Recorded fluorescent signals were normalized to the Western-blot signal of rSERT.

Question: Which results are given for `CNCCCN1c2ccccc2CCc2ccc(N=[N+]=[N-])cc21` [compound 15, 3-(3-azido-10,11-dihydro-5H-dibenzo[b,f]azepin-5-yl)-N-methylpro-pan-1-amine]?
Answer: IC50 (rSERT [1]): 85.1 nM; Ki (rSERT [1]): 62.4 nM

Question: For `CN(CCCN1c2ccccc2CCc2ccccc21)CC(=O)c1ccc(Cl)cc1` [compound 5, lofepramine, reference compound], which IC50 (rSERT [1]) is on record?
Answer: 1550 nM

Question: And the Ki (rSERT [1])?
Answer: 1120 nM

Question: With `C#CCCN(C)CCCN1c2ccccc2CCc2ccc(N=[N+]=[N-])cc21` [compound 17, N-(3-(3-azido-10,11-dihydro-5H-dibenzo[b,f]azepin-5-yl)propyl)-N-methylbut-3-yn-1-amine] as the molecule, how does the Ki (hDAT; read-out: Ki, DAT) read?
Answer: 1640 nM

Question: What about the Ki (hDAT; three independent experiments, each in triplicates, read-out: pKi ±SEM, DAT (converted)) of the same molecule?
Answer: 1580 nM

Question: And the “drop in affinity to SERT, MSBA versus RBA” value (hSERT; Ki 103 nM (MSBA, human) vs 22.2 nM (RBA, rat))?
Answer: 4.6 fold

Question: What about the Ki (hSERT; MSBA, read-out: Ki, SERT) of the same molecule?
Answer: 103 nM

Question: And the Ki (hNET)?
Answer: 115 nM

Question: What about the IC50 (rSERT [1]) of the same molecule?
Answer: 30.2 nM

Question: What about the Ki (rSERT [1]) of the same molecule?
Answer: 22.2 nM

Question: What about the “covalent labelling of rSERT in living cells” value (rSERT [2]) of the same molecule?
Answer: forms covalent bonds with rSERT after UV-light exposure in living cells

Question: And the “covalent labelling of rSERT by PAL and visualization by CuAAC” value (rSERT [3]; rSERT-enriched material, UV-light 312 nm)?
Answer: interacts predominantly with rSERT

Question: With `CN(C)CCCN1c2ccccc2CCc2ccc(N=[N+]=[N-])cc21` [compound 11, 3-(3-azido-10,11-dihydro-5H-dibenzo[b,f]azepin-5-yl)-N,N-dimethyl propan-1-amine] as the molecule, how does the IC50 (rSERT [1]) read?
Answer: 12 nM

Question: What about the Ki (rSERT [1]) of the same molecule?
Answer: 8.82 nM

Question: Which results are given for `CN1CCN2c3ncccc3Cc3ccccc3C2C1` (centres unmarked) [mirtazapine]?
Answer: decrease in binding signal of 17 at enriched rSERT by competitor (rSERT [3]): does not; decrease in binding signal of 17 at enriched rSERT by competitor (rSERT [3]; listed as MRT): no effect
